Assay results reported in US20110318470A1, “Method For Improving Plant Health” (priority 2008, published 2011).

System: Wheat plants (Trificum aestivum cv. Monopol)
Experiment: Growth-promoting effect on wheat plants after foliar treatment
Assay type: in vivo
Details: for Shoot-DW / Shoot-FW: 750 l/ha, greenhouse, mean of six pots with ten plants; for Shoot-DW / Shoot-FW / Shoot-DW % of control / Shoot-FW % of control: harvest after 18 days; for Shoot-DW % of control / Shoot-FW % of control: control = 100.0; for plant health (higher yields and increased plant vigor based on fresh- and dry weights) / tillering: wheat, foliar treatment, 15 and 7.5 g ai/ha
Experimental: Wheat plants (Trificum aestivum cv. Monopol) were grown in soil with ten plants per pot (13 cm diameter) under greenhouse conditions. Plants at the 2nd leaf stage were sprayed with aqueous solutions of formulated compounds: • Compound 1=4-Fluoro-N-[2-(2-fluoro-benzoylamino)-1-methylcarbamoyl-ethyl]-2-trifluoromethyl-benzamide • Compound 2=4-Fluoro-N-[2-(3-fluoro-2-methyl-phenyl)-2-hydroxy-1-methylcarbamoyl-ethyl]-2-trifluoromethyl-benzamide The compounds were applied at two different dose rates (15 and 7.5 g ai/ha) and the spray volume was 750 l/ha. Six replicate pots with ten plants each were used per treatment. After 18 days plants were harvested and growth parameters were determined. The recorded parameters were fresh weight (FW) and dry weight (DW). Mean values of results, standard deviation (SD) and percentage to control were calculated.

[1] = 7.5 g ai/ha foliar spray at 2nd leaf stage
[2] = 15 g ai/ha foliar spray at 2nd leaf stage

| SMILES | Shoot-DW [1] [g] | Shoot-FW [1] [g] | Shoot-DW % of control (7.5 g ai/ha foliar spray) | Shoot-FW % of control (7.5 g ai/ha foliar spray) | Shoot-DW [2] [g] | Shoot-FW [2] [g] | Shoot-DW % of control (15 g ai/ha foliar spray) | Shoot-FW % of control (15 g ai/ha foliar spray) | plant health (higher yields and increased plant vigor based on fresh- and dry weights) | tillering |
| --- | --- | --- | --- | --- | --- | --- | --- | --- | --- | --- |
| CNC(=O)C(CNC(=O)c1ccccc1F)NC(=O)c1ccc(F)cc1C(F)(F)F (centres unmarked) [Compound 1, 4-Fluoro-N-[2-(2-fluoro-benzoylamino)-1-methylcarbamoyl-ethyl]-2-trifluoromethyl-benzamide] | 3.8 | 40.6 | 134.9 % of control | 132.7 % of control | 3.7 | 38.8 | 131.0 % of control | 126.9 % of control | strongly increase the plant health | increase in tillering |
| CNC(=O)C(NC(=O)c1ccc(F)cc1C(F)(F)F)C(O)c1cccc(F)c1C (centres unmarked) [Compound 2, 4-Fluoro-N-[2-(3-fluoro-2-methyl-phenyl)-2-hydroxy-1-methylcarbamoyl-ethyl]-2-trifluoromethyl-benzamide] | 3.9 | 40.2 | 138.6 % of control | 131.4 % of control | 3.9 | 40.6 | 138.2 % of control | 132.8 % of control | strongly increase the plant health | increase in tillering |
